From ChEMBL document CHEMBL1149732, “New bioactive metabolites from a freshwater isolate of the fungus Kirschsteiniothelia sp” (1992)
≈ marks a conversion by molar mass, not a printed value. Calls of active or inactive are those of the source. The calls are words filed in the database; no cut-off is given here.

Legend:
Staphylococcus aureus [1] = assay: Antimicrobial activity against Staphylococcus aureus at 1 ug/disk by disk assay; type: functional, organism-based
Bacillus subtilis [2] = assay: Antimicrobial activity against Bacillus subtilis at 5 ug/disk by disk assay; type: functional, organism-based
Bacillus subtilis [3] = assay: Antimicrobial activity against Bacillus subtilis at 1 ug/disk by disk assay; type: functional, organism-based
Staphylococcus aureus [4] = assay: Antimicrobial activity against Staphylococcus aureus at 10 ug/disk by disk assay; type: functional, organism-based
A549 = assay: Cytotoxicity against human A549 cells; type: functional; conditions: read-out: ED50 (the source's name)
MCF7 = assay: Cytotoxicity against human MCF7 cells; type: functional; conditions: read-out: ED50 (the source's name)
HT-29 = assay: Cytotoxicity against human HT-29 cells; type: functional; conditions: read-out: ED50 (the source's name)

Cc1cc(O)c(Cl)c(Oc2c(Cl)c(C)cc(O)c2Cl)c1Cl
Activity (Staphylococcus aureus [1]): Active

Cc1cc(O)c(Cl)c(Oc2c(Cl)c(C)cc(O)c2Cl)c1
Activity (Bacillus subtilis [2]): Active

COC1=CC(=O)c2c(cc(OC)c(C(C)C3=C(O)C(=O)c4cc(O)c(C(C)=O)c(O)c4C3=O)c2O)C1=O (configuration not stated) [KIRSCHSTEININ]
Activity (Bacillus subtilis [3]): Active | Activity (Staphylococcus aureus [4]): Active | EC50 (A549): 3.1 µg/mL (≈ 6.1 µM) | EC50 (MCF7): 5.2 µg/mL (≈ 10.2 µM) | EC50 (HT-29): 2.7 µg/mL (≈ 5.31 µM)
